Bounds are passed on as bounds.

From ChEMBL document CHEMBL1148518, “Synthesis and SAR of alpha-sulfonylcarboxylic acids as potent matrix metalloproteinase inhibitors” (Bioorg Med Chem Lett, 2006) come the findings set out here.

For data set [1], the target named is 72 kDa type IV collagenase (Homo sapiens, UniProt P08253).
Data set [2] concerns the target Matrix metalloproteinase-9 (Homo sapiens, UniProt P14780).
Another data set addresses Collagenase 3 (Homo sapiens, UniProt P45452).
In a further data set the target is Stromelysin-1 (Homo sapiens, UniProt P08254). The experiment in a line: Inhibition of MMP3.
The next data set addresses T1, Interstitial collagenase (Homo sapiens, UniProt P03956).
T1 sequence (P03956 whole entry): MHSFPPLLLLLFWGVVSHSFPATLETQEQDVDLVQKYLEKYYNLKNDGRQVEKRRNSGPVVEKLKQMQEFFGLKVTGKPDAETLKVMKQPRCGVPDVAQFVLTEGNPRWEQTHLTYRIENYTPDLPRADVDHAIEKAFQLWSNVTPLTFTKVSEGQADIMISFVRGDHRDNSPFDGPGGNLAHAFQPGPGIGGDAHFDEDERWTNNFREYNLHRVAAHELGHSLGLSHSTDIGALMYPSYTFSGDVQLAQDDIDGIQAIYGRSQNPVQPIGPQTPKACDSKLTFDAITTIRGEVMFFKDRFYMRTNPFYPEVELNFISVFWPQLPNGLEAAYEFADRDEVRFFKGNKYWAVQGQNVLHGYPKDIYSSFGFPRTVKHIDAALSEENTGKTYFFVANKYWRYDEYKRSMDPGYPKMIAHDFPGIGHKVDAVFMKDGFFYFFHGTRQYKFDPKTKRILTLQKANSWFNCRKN
The experiment in a line: Inhibition of MMP1.

The nature of data set [3]: (§1) Volume of distribution in rat at 0.5 mg/kg, iv. It counts as ADME, organism-based. More on the design: dose 0.5 mg/kg, route intravenous. Particulars: in vivo, read-out: Vss.
A short description of data set [4]: Metabolic stability in human liver microsomes. It counts as ADME, Microsome. In general terms: Microsomes from liver hold many membrane-bound enzymes, among them those of drug oxidation.
A short description of data set [5]: (§2) Apparent elimination half life in rat at 0.5 mg/kg, iv. It counts as ADME, organism-based. Details: dose 0.5 mg/kg, route intravenous. Conditions: in vivo.
Data set [6] in a line: AUC in rat at 0.5 mg/kg, iv. It counts as ADME, organism-based. Details: dose 0.5 mg/kg, route intravenous. Particulars: plasma.
A short description of data set [7]: Initial concentration in rat at 0.5 mg/kg, iv. It is filed as ADME, organism-based. More on the design: dose 0.5 mg/kg, route intravenous. Particulars: in vivo.
A short description of data set [8]: Clearance in rat at 0.5 mg/kg, iv. Details: dose 0.5 mg/kg, route intravenous. Conditions: in vivo. It is filed as ADME, organism-based.
Data set [9] deals with Rattus norvegicus. Described as §1. It counts as ADME, organism-based. Particulars: in vivo. More on the design: dose 0.5 mg/kg, route intravenous.
Data set [10] relates to Rattus norvegicus. The description is as §2. More on the design: dose 0.5 mg/kg, route intravenous. It is filed as ADME, organism-based. Particulars: in vivo.

Matrix metalloproteinase-9, sequence (P14780 whole entry): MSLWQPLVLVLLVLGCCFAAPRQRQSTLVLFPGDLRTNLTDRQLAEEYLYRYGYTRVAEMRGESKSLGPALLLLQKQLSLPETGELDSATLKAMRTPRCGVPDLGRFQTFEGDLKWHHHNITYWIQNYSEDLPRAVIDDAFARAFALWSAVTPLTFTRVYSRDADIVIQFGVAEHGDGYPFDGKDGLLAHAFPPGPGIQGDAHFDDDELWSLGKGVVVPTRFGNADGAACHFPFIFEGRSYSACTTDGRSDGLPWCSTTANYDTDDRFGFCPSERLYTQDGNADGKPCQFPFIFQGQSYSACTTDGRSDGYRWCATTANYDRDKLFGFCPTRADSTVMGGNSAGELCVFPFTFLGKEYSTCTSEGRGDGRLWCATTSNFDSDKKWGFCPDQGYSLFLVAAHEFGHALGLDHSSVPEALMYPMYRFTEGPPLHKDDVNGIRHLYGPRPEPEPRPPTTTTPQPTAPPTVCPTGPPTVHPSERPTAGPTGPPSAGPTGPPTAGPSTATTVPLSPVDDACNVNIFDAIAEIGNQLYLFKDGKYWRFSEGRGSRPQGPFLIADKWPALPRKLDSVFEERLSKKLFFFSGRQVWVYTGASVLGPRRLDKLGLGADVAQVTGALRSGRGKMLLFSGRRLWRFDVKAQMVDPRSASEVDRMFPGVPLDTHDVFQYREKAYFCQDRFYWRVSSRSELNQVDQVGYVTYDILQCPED
72 kDa type IV collagenase, sequence (P08253 whole entry): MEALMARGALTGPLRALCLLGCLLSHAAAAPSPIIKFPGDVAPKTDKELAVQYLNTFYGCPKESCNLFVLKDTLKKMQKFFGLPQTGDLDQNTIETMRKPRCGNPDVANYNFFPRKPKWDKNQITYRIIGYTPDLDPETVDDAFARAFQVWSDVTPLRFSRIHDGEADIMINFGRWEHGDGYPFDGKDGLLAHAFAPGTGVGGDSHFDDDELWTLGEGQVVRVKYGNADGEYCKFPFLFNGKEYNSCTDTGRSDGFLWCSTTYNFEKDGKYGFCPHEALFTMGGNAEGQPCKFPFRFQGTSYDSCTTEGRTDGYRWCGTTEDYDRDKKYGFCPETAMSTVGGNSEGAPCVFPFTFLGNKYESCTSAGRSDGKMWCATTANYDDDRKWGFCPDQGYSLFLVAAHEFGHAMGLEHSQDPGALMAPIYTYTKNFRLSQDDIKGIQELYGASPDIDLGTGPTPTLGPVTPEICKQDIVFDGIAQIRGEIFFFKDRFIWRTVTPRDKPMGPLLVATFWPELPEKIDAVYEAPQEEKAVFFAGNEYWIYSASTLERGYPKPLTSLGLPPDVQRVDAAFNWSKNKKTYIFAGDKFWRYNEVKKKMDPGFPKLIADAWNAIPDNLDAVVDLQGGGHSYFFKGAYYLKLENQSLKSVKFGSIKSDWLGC
Stromelysin-1, sequence (P08254 whole entry): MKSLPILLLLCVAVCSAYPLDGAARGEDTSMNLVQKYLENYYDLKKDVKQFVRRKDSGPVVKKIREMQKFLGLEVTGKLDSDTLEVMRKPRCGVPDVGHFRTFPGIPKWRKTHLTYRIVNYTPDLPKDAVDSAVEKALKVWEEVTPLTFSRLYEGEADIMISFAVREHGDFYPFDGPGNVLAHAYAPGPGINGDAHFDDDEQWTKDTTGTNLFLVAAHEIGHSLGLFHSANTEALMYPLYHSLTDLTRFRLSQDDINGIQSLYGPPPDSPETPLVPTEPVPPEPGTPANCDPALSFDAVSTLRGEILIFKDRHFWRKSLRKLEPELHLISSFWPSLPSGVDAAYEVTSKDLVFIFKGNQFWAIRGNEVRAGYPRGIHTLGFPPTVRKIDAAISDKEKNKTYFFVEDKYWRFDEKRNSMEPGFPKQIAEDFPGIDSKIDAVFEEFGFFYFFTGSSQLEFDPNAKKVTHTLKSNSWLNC

One may read the IC50 as the midpoint of a concentration-inhibition curve. Compound `COc1cccc(C#Cc2ccc(SC(CCN3C(=O)c4ccccc4C3=O)C(=O)O)cc2)c1` (centres undefined) had an IC50 in data set [1] of 4 nM.
Still for that read-out and setting: under `COc1ccc(-c2ccc(S(=O)(=O)C(CCN3C(=O)c4ccccc4C3=O)C(=O)O)cc2)cc1` (centres undefined) stands 0.84 nM; under `O=C(O)C(CCN1C(=O)c2ccccc2C1=O)S(=O)(=O)c1ccc(Oc2ccc(OC(F)(F)F)cc2)cc1` (centres undefined), 19 nM.
On to `Cc1ccc(C#Cc2ccc(SC(CCN3C(=O)c4ccccc4C3=O)C(=O)O)cc2)cc1` (centres undefined), for which, in data set [1], the 50% inhibitory concentration (IC50) is 33 nM.
Regarding `CCCC(C(=O)O)S(=O)(=O)c1ccc(-c2ccc(Cl)cc2)cc1` (centres undefined), the IC50 in data set [1] was found to be 792 nM; in [2], 10000 nM.
The corresponding values for `O=C(O)C(CN1C(=O)c2ccccc2C1=O)S(=O)(=O)c1ccc(-c2ccc(Cl)cc2)cc1` (centres undefined) are 556 nM and 1050 nM.
The corresponding values for `CC(CCN1Cc2ccccc2C1)(C(=O)O)S(=O)(=O)c1ccc(-c2ccc(Cl)cc2)cc1` (centres undefined) are 3060 nM and more than 10000 nM.
Take `CCCc1ccc(C#Cc2ccc(SC(CCN3C(=O)c4ccccc4C3=O)C(=O)O)cc2)cc1` (centres undefined): the IC50 in data set [1] came out at 1.1 nM.
Same read-out and setting: the same measure for `CCc1ccc(C#Cc2ccc(SC(CCN3C(=O)c4ccccc4C3=O)C(=O)O)cc2)cc1` (centres undefined): 1.3 nM.
On to `O=C(O)C(CCN1C(=O)c2ccccc2C1=O)S(=O)(=O)c1ccc(-c2nc3ccc(F)cc3[nH]2)cc1` (centres undefined), for which the IC50 on Collagenase 3 is 0.8 nM; against Stromelysin-1 it was 34 nM; in [1], 0.7 nM; against Interstitial collagenase it was more than 1000 nM.
Compound `O=C(O)C(CCN1C(=O)c2ccccc2C1=O)S(=O)(=O)c1ccc(-c2ccc(F)cc2)cc1` (centres undefined) returned an IC50 in data set [1] of 6.5 nM.
On to `O=C(O)C(CCSc1ccccc1)S(=O)(=O)c1ccc(-c2ccc(Cl)cc2)cc1` (centres undefined), for which the IC50 in data set [1] was 295 nM; in [2] it was more than 10000 nM.
In data set [1], `Cc1ccc(C#Cc2ccc([S+]([O-])C(CCN3C(=O)c4ccccc4C3=O)C(=O)O)cc2)cc1` (centres undefined) gave an IC50 of 1.5 nM.
On the same count and under the same terms, the same measure for `CCCCc1ccc(C#Cc2ccc(SC(CCN3C(=O)c4ccccc4C3=O)C(=O)O)cc2)cc1` (centres undefined): 2.3 nM; for `CC(C)c1ccc(-c2ccc(S(=O)(=O)C(CCN3C(=O)c4ccccc4C3=O)C(=O)O)cc2)cc1` (centres undefined): 0.98 nM.
The term half-life denotes how long it takes for the measured level to halve. What is called AUC is the area under the concentration-time curve, a measure of exposure. A low value points to less exposure. The term clearance denotes the volume of plasma or blood freed of the substance per unit of time. In the case of `O=C(NO)C(CCN1C(=O)c2ccccc2C1=O)S(=O)(=O)c1ccc(-c2ccc(Cl)cc2)cc1` (centres undefined), the Vd in data set [3] turned out to be 0.1 L/kg. Besides, the half-life was 12 min in data set [4] and 58.8 min in [5]. Besides, the IC50 is 0.62 nM in data set [1] and 1.4 nM in [2]. The compound further returned an AUC in [6] of 2940 ng·h/mL. Also, in data set [7], the C0 was determined as 13.9 µM. This compound also registered a clearance in [8] of 2.9 mL/min/kg.
`CC(C)c1ccc(C#Cc2ccc(SC(CCN3C(=O)c4ccccc4C3=O)C(=O)O)cc2)cc1` (centres undefined) registered an IC50 in data set [1] of 1.7 nM. This counts as single-digit nanomolar.
The same measure, in the same setting: under `CC(CCN1C(=O)c2ccccc2C1=O)(C(=O)O)S(=O)(=O)c1ccc(-c2ccc(Cl)cc2)cc1` (centres undefined) stands 52 nM; under `N#Cc1ccc(N2CCN(c3ccc(S(=O)(=O)C(CCN4C(=O)c5ccccc5C4=O)C(=O)O)cc3)CC2)cc1` (centres undefined), 6.8 nM.
For the compound `O=C(O)C(CCN1Cc2ccccc2C1=O)S(=O)(=O)c1ccc(-c2ccc(Cl)cc2)cc1` (centres undefined), the IC50 worked out at 8.6 nM in [1] and 96.5 nM in data set [2].
The corresponding values for `O=C(O)C(CCCN1C(=O)c2ccccc2C1=O)S(=O)(=O)c1ccc(-c2ccc(Cl)cc2)cc1` (centres undefined) are 145 nM and 2120 nM.
In [1], `Cc1ccc(-c2ccc(S(=O)(=O)C(CCN3C(=O)c4ccccc4C3=O)C(=O)O)cc2)cc1` (centres undefined) had an IC50 of 1.2 nM. That is a single-digit nanomolar value.
Same read-out and setting: under `O=C(O)C(CCN1C(=O)c2ccccc2C1=O)S(=O)(=O)c1ccc(N2CC=C(c3ccc(Cl)cc3)CC2)cc1` (centres undefined) stands 12 nM.
Same read-out and setting: the same measure for `O=C(O)C(CCN1C(=O)c2ccccc2C1=O)Sc1ccc(C#Cc2ccc(Cl)cc2)cc1` (centres undefined): 1.9 nM.
Same read-out and setting: under `O=C(O)C(CCN1C(=O)c2ccccc2C1=O)Sc1ccc(C#Cc2ccc(OC(F)(F)F)cc2)cc1` (centres undefined) stands 1.3 nM; under `N#Cc1ccc(-c2ccc(S(=O)(=O)C(CCN3C(=O)c4ccccc4C3=O)C(=O)O)cc2)cc1` (centres undefined), 3 nM.
Compound `CSc1ccc(-c2ccc(S(=O)(=O)C(CCN3C(=O)c4ccccc4C3=O)C(=O)O)cc2)cc1` (centres undefined) had an IC50 in data set [1] of 0.74 nM.
Consider `Cc1ccc(C#Cc2ccc(S(=O)(=O)C(CCN3C(=O)c4ccccc4C3=O)C(=O)O)cc2)cc1` (centres undefined), for which the IC50 against Collagenase 3 was 1.4 nM; against Stromelysin-1, 28 nM; in data set [1], 0.7 nM; against Interstitial collagenase, more than 1000 nM.
For orientation: Vss means the apparent volume that relates the amount in the body to the concentration in plasma or blood. A high value points to wide distribution into tissue. In the data set with Rattus norvegicus [9], `O=C(O)C(CCN1C(=O)c2ccccc2C1=O)S(=O)(=O)c1ccc(-c2ccc(Cl)cc2)cc1` (centres undefined) displayed a Vss of 0.4 L/kg. In data set [4], this compound showed a half-life of 230 min. Besides, the T1/2 with Rattus norvegicus [10] turned out to be 84 min. The same compound gave an IC50 in data set [1] of 1.8 nM. The compound further returned an AUC in data set [6] of 18200 ng·h/mL. In data set [7], this compound came in with a C0 of 41.4 µM.
The compound `COc1ccc(C(=O)Cc2ccc(SC(CCN3C(=O)c4ccccc4C3=O)C(=O)O)cc2)cc1` (centres undefined) displayed an IC50 in data set [1] of 54 nM.
